Data reported in PubChem BioAssay (NCI).
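Interpolation was linear, between the two tested concentrations surrounding the appropriate level; five concentrations were tested over 48 hours in 96-well plates. The concentration for 50% growth inhibition is given as GI50. TGI marks complete inhibition of growth.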

Experiments:
Test in all cases: NCI tumour cell line growth inhibition, 48 h
786-0 renal = system: 786-0 renal
A498 renal = system: A498 renal
A549 NSCLC = system: A549 NSCLC
ACHN renal = system: ACHN renal
BT-549 breast = system: BT-549 breast
CAKI-1 renal = system: CAKI-1 renal
CCRF-CEM leukemia = system: CCRF-CEM leukemia
COLO 205 colon = system: COLO 205 colon
DU-145 prostate = system: DU-145 prostate
EKVX NSCLC = system: EKVX NSCLC
HCC-2998 colon = system: HCC-2998 colon
HCT-116 colon = system: HCT-116 colon
HCT-15 colon = system: HCT-15 colon
HL-60(TB) leukemia = system: HL-60(TB) leukemia
HOP-62 NSCLC = system: HOP-62 NSCLC
HOP-92 NSCLC = system: HOP-92 NSCLC
HS 578T breast = system: HS 578T breast
HT29 colon = system: HT29 colon
IGROV1 ovarian = system: IGROV1 ovarian
K-562 leukemia = system: K-562 leukemia
KM12 colon = system: KM12 colon
LOX IMVI melanoma = system: LOX IMVI melanoma
MALME-3M melanoma = system: MALME-3M melanoma
MCF7 breast = system: MCF7 breast
MDA-MB-231 breast = system: MDA-MB-231 breast
MDA-MB-435 = system: MDA-MB-435
MOLT-4 leukemia = system: MOLT-4 leukemia
NCI-H226 lung = system: NCI-H226 lung
NCI-H23 lung = system: NCI-H23 lung
NCI-H460 lung = system: NCI-H460 lung
NCI-H522 lung = system: NCI-H522 lung
NCI/ADR-RES ovarian = system: NCI/ADR-RES ovarian
OVCAR-3 ovarian = system: OVCAR-3 ovarian
OVCAR-4 ovarian = system: OVCAR-4 ovarian
OVCAR-5 ovarian = system: OVCAR-5 ovarian
OVCAR-8 ovarian = system: OVCAR-8 ovarian
PC-3 prostate = system: PC-3 prostate
RPMI-8226 leukemia = system: RPMI-8226 leukemia
RXF 393 renal = system: RXF 393 renal
SF-268 CNS = system: SF-268 CNS
SF-295 CNS = system: SF-295 CNS
SF-539 CNS = system: SF-539 CNS
SK-MEL-2 melanoma = system: SK-MEL-2 melanoma
SK-MEL-28 melanoma = system: SK-MEL-28 melanoma
SK-MEL-5 melanoma = system: SK-MEL-5 melanoma
SK-OV-3 ovarian = system: SK-OV-3 ovarian
SN12C renal = system: SN12C renal
SNB-19 CNS = system: SNB-19 CNS
SNB-75 CNS = system: SNB-75 CNS
SR leukemia = system: SR leukemia
SW-620 colon = system: SW-620 colon
T-47D breast = system: T-47D breast
TK-10 renal = system: TK-10 renal
U251 CNS = system: U251 CNS
UACC-257 melanoma = system: UACC-257 melanoma
UACC-62 melanoma = system: UACC-62 melanoma
UO-31 renal = system: UO-31 renal

`CC1=C2C(=C[C@@](C)(COC(=O)c3ccc(S(=O)(=O)F)cc3)[C@@H]2O)C(=O)[C@](C)(O)C12CC2` showed a GI50 (786-0 renal) of 2150 nM, a TGI (786-0 renal) of 7930 nM and a GI50 (A498 renal) of 2270 nM. The TGI (A498 renal) was 5620 nM, the GI50 (A549 NSCLC) was 2870 nM and the TGI (A549 NSCLC) was over 26100 nM. For the same compound, the GI50 (ACHN renal) was 541 nM, the TGI (ACHN renal) was 1730 nM and the GI50 (BT-549 breast) was 1220 nM. For the same compound, the TGI (BT-549 breast) was 2840 nM, the GI50 (CAKI-1 renal) was 631 nM and the TGI (CAKI-1 renal) was 2450 nM. For the same compound, the GI50 (CCRF-CEM leukemia) was 3210 nM, the TGI (CCRF-CEM leukemia) was over 28000 nM and the GI50 (COLO 205 colon) was 951 nM. The TGI (COLO 205 colon) was 2720 nM, the GI50 (DU-145 prostate) was 522 nM and the TGI (DU-145 prostate) was 3040 nM. The GI50 (EKVX NSCLC) was 2420 nM, the TGI (EKVX NSCLC) was 6470 nM and the GI50 (HCC-2998 colon) was 945 nM. It also gave a TGI (HCC-2998 colon) of 2710 nM, a GI50 (HCT-116 colon) of 587 nM and a TGI (HCT-116 colon) of 2500 nM. For the same compound, the GI50 (HCT-15 colon) was 424 nM, the TGI (HCT-15 colon) was 2240 nM and the GI50 (HL-60(TB) leukemia) was 566 nM. The TGI (HL-60(TB) leukemia) was 5910 nM, the GI50 (HOP-62 NSCLC) was 2550 nM and the TGI (HOP-62 NSCLC) was 13800 nM. It also gave a GI50 (HOP-92 NSCLC) of 2170 nM, a TGI (HOP-92 NSCLC) of 6010 nM and a GI50 (HS 578T breast) of 2420 nM. For the same compound, the TGI (HS 578T breast) was 9570 nM, the GI50 (HT29 colon) was 498 nM and the TGI (HT29 colon) was 2670 nM. For the same compound, the GI50 (IGROV1 ovarian) was 941 nM, the TGI (IGROV1 ovarian) was 5060 nM and the GI50 (K-562 leukemia) was 3410 nM. It also gave a TGI (K-562 leukemia) of over 100000 nM, a GI50 (KM12 colon) of 4280 nM and a TGI (KM12 colon) of 24900 nM. The GI50 (LOX IMVI melanoma) was 588 nM, the TGI (LOX IMVI melanoma) was 2220 nM and the GI50 (MALME-3M melanoma) was 785 nM. The TGI (MALME-3M melanoma) was 2330 nM, the GI50 (MCF7 breast) was 596 nM and the TGI (MCF7 breast) was 9310 nM. For the same compound, the GI50 (MDA-MB-231 breast) was 1350 nM, the TGI (MDA-MB-231 breast) was 6620 nM and the GI50 (MDA-MB-435) was 1170 nM. The TGI (MDA-MB-435) was 2980 nM, the GI50 (MOLT-4 leukemia) was 2020 nM and the TGI (MOLT-4 leukemia) was over 25800 nM. It also gave a GI50 (NCI-H226 lung) of 2300 nM, a TGI (NCI-H226 lung) of 9140 nM and a GI50 (NCI-H23 lung) of 1000 nM. For the same compound, the TGI (NCI-H23 lung) was 3620 nM, the GI50 (NCI-H460 lung) was 614 nM and the TGI (NCI-H460 lung) was 1870 nM. The GI50 (NCI-H522 lung) was 745 nM, the TGI (NCI-H522 lung) was 2530 nM and the GI50 (NCI/ADR-RES ovarian) was 815 nM. It also gave a TGI (NCI/ADR-RES ovarian) of 3970 nM, a GI50 (OVCAR-3 ovarian) of 906 nM and a TGI (OVCAR-3 ovarian) of 3800 nM. For the same compound, the GI50 (OVCAR-4 ovarian) was 1690 nM, the TGI (OVCAR-4 ovarian) was 4390 nM and the GI50 (OVCAR-5 ovarian) was 982 nM. The TGI (OVCAR-5 ovarian) was 5120 nM, the GI50 (OVCAR-8 ovarian) was 903 nM and the TGI (OVCAR-8 ovarian) was 3620 nM. It also gave a GI50 (PC-3 prostate) of 1710 nM, a TGI (PC-3 prostate) of over 29100 nM and a GI50 (RPMI-8226 leukemia) of 24500 nM. It also gave a TGI (RPMI-8226 leukemia) of over 74200 nM, a GI50 (RXF 393 renal) of 522 nM and a TGI (RXF 393 renal) of 1230 nM. It also gave a GI50 (SF-268 CNS) of 1060 nM, a TGI (SF-268 CNS) of 6130 nM and a GI50 (SF-295 CNS) of 2140 nM. For the same compound, the TGI (SF-295 CNS) was 8200 nM, the GI50 (SF-539 CNS) was 1860 nM and the TGI (SF-539 CNS) was 3710 nM. The GI50 (SK-MEL-2 melanoma) was 613 nM, the TGI (SK-MEL-2 melanoma) was 1290 nM and the GI50 (SK-MEL-28 melanoma) was 556 nM. For the same compound, the TGI (SK-MEL-28 melanoma) was 2050 nM, the GI50 (SK-MEL-5 melanoma) was 1490 nM and the TGI (SK-MEL-5 melanoma) was 3510 nM. The GI50 (SK-OV-3 ovarian) was 2520 nM, the TGI (SK-OV-3 ovarian) was 7890 nM and the GI50 (SN12C renal) was 1200 nM. For the same compound, the TGI (SN12C renal) was 5460 nM, the GI50 (SNB-19 CNS) was 1820 nM and the TGI (SNB-19 CNS) was 10400 nM. It also gave a GI50 (SNB-75 CNS) of 1490 nM, a TGI (SNB-75 CNS) of 3070 nM and a GI50 (SR leukemia) of 1360 nM. For the same compound, the TGI (SR leukemia) was over 22600 nM, the GI50 (SW-620 colon) was 1970 nM and the TGI (SW-620 colon) was 8790 nM. The GI50 (T-47D breast) was 2060 nM, the TGI (T-47D breast) was 18800 nM and the GI50 (TK-10 renal) was 2510 nM. For the same compound, the TGI (TK-10 renal) was 6470 nM, the GI50 (U251 CNS) was 1400 nM and the TGI (U251 CNS) was over 25100 nM. For the same compound, the GI50 (UACC-257 melanoma) was 2050 nM, the TGI (UACC-257 melanoma) was 4780 nM and the GI50 (UACC-62 melanoma) was 894 nM. For the same compound, the TGI (UACC-62 melanoma) was 2560 nM, the GI50 (UO-31 renal) was 1610 nM and the TGI (UO-31 renal) was 3090 nM.
